Experimental data: patent publication US20250353820A1, “ANTIVIRAL PYRAZOLOPYRIDINONE COMPOUNDS” (Novartis AG, priority 2019, published 2025)
Read-outs that look alike come from different tables or passages of the source.

Assays:
[1] = target: human CMV DNA polymerase UL54 (Human cytomegalovirus (strain AD169) (HHV-5) (Human herpesvirus 5), UniProt P08546); test: biochemical
[2] = target: human HSV DNA polymerase UL30 (Human herpesvirus 1 (strain 17) (HHV-1) (Human herpes simplex virus 1), UniProt P04293); test: biochemical; details: 20 minutes at room temperature
[3] = system: Luciferase-encoding HCMV (AD169 strain); test: microbe, parasite or virus in culture; format: cell-based
[4] = 100 pM CMV polymerase, 60 minutes at room temperature, read-out: CMV-polymerase Biochemical IC50
[5] = 625 pM HSV polymerase, read-out: HSV-polymerase Biochemical IC50
[6] = read-out: CMV-Luc Cellular EC50, NN-NHDF cells, MOI of 1, 72 hrs
[7] = Human betaherpesvirus 5, AD169, 72 h, read-out: CMV-Luc Cellular EC50, NN-NHDF cells, MOI of 1, 72 hrs
[8] = HSV-polymerase Biochemical IC50, 625 pM HSV polymerase

Question: With Cn1nc(C(=O)NCc2ccc(C#N)cc2)c2c1C(=O)N(CC1(S(=O)(=O)C3CCOC3)CC1)CC2 (single isomer, unassigned) [Example 171] as the compound, how does the IC50 [1, 4] read?
Answer: The IC50 was 3 nM.

Question: And the IC50 [2, 5]?
Answer: The IC50 was 78 nM.

Question: What about the EC50 [3, 6] of the same compound?
Answer: Its EC50 is 104 nM.

Question: What does the source list for Cn1nc(C(=O)NCc2ccc(Cl)cc2)c2c1C(=O)N(CC1(S(=O)(=O)C(C)(CN)CO)CC1)CC2 (single isomer, unassigned) [Example 187]?
Answer: IC50 [2, 5]: 86 nM; EC50 [3, 6]: 71 nM

Question: How did the IC50 [1, 4] turn out when CN(C)CC(O)C(C)(C)S(=O)(=O)C1(CN2CCc3c(C(=O)NCc4ccc(Cl)cc4)nn(C)c3C2=O)CC1 (single isomer, unassigned) [Example 207] was run?
Answer: Its IC50 is 23 nM.

Question: What about the IC50 [2, 5] of the same compound?
Answer: The IC50 was 88 nM.

Question: What about the EC50 [3, 6] of the same compound?
Answer: The EC50 was 50 nM.

Question: Cn1nc(C(=O)NCc2ccc(C#N)cc2)c2c1C(=O)N(CC1(S(=O)(=O)C(C)(CN)CO)CC1)CC2 (single isomer, unassigned) [Example 185] was tested. Which IC50 [1, 4] did it give?
Answer: The IC50 was 4 nM.

Question: What about the IC50 [2, 5] of the same compound?
Answer: The IC50 was 59 nM.

Question: And the EC50 [3, 6]?
Answer: The EC50 was 275 nM.

Question: For CNCC(O)C(C)(C)S(=O)(=O)C1(CN2CCc3c(C(=O)NCc4ccc(C#N)cc4)nn(C)c3C2=O)CC1 (single isomer, unassigned) [Example 203], which IC50 [1, 4] is on record?
Answer: Its IC50 is 2 nM.

Question: And the IC50 [2, 5]?
Answer: The IC50 was 38 nM.

Question: And the EC50 [3, 6]?
Answer: The EC50 was 19 nM.

Question: Which results are given for Cn1nc(C(=O)NCc2ccc(C#N)cc2)c2c1C(=O)N(CC1(S(=O)(=O)C3CCOC3)CC1)CC2 (single isomer, unassigned) [Example 170]?
Answer: IC50 [1, 4]: 4 nM; IC50 [2, 5]: 122 nM

Question: Which results are given for Cn1nc(C(=O)NCc2ccc(Cl)cc2)c2c1C(=O)N(CC1(S(=O)(=O)C3(C(O)CO)CC3)CC1)CC2 (single isomer, unassigned) [Example 196]?
Answer: IC50 [1, 4]: 1 nM; IC50 [2, 5]: 19 nM; EC50 [3, 7]: 19 nM

Question: How did the IC50 [2, 5] turn out when Cn1nc(C(=O)NCc2ccc(Cl)cc2)c2c1C(=O)N(CC1(S(=O)(=O)C(C)(CN)CO)CC1)CC2 (stereo not drawn) [Example 186] was run?
Answer: Its IC50 is 37 nM.

Question: What about the EC50 ([3]; NN-NHDF cells, MOI of 1, 72 hrs, read-out: CMV-Luc Cellular EC50) of the same compound?
Answer: Its EC50 is 90 nM.

Question: With CC(N)COCC(C)(C)S(=O)(=O)C1(CN2CCc3c(C(=O)NCc4ccc(Cl)cc4)nn(C)c3C2=O)CC1 (single isomer, unassigned) [Example 98] as the compound, how does the IC50 ([1]; read-out: CMV-polymerase Biochemical IC50, 100 pM CMV polymerase, 60 minutes at room temperature) read?
Answer: The IC50 was 1 nM.

Question: What about the IC50 [2, 8] of the same compound?
Answer: The IC50 was 26 nM.

Question: What does the source list for CC(N)COCC(C)(C)S(=O)(=O)C1(CN2CCc3c(C(=O)NCc4ccc(Cl)cc4)nn(C)c3C2=O)CC1 (single isomer, unassigned) [Example 97]?
Answer: IC50 [1]: 1 nM; IC50 [2, 8]: 23 nM

Question: Which results are given for Cn1nc(C(=O)NCc2ccc(C#N)cc2)c2c1C(=O)N(CC1(S(=O)(=O)C(C)(CN)CO)CC1)CC2 (single isomer, unassigned) [Example 184]?
Answer: IC50 [1, 4]: 4 nM; IC50 [2, 5]: 52 nM

Question: With Cn1nc(C(=O)NCc2ccc(C#N)cc2)c2c1C(=O)N(CC1(S(=O)(=O)C(C)(C)[C@H](O)CO)CC1)CC2 [Example 193, (R)—N-(4-cyanobenzyl)-6-((1-((3,4-dihydroxy-2-methylbutan-2-yl)sulfonyl)cyclopropyl)methyl)-1-methyl-7-oxo-4,5,6,7-tetrahydro-1H-pyrazolo[3,4-c]pyridine-3-carboxamide] as the compound, how does the IC50 [2, 5] read?
Answer: Its IC50 is 11 nM.

Question: And the EC50 [3, 7]?
Answer: Its EC50 is 22 nM.

Question: How did the IC50 [2, 5] turn out when Cn1nc(C(=O)NCc2ccc(Cl)cc2)c2c1C(=O)N(CC1(S(=O)(=O)C(C)(CN)CO)CC1)CC2 (single isomer, unassigned) [Example 188] was run?
Answer: The IC50 was 108 nM.

Question: And the EC50 [3, 6]?
Answer: Its EC50 is 160 nM.

Question: With Cn1nc(C(=O)NCc2ccc(C#N)cc2)c2c1C(=O)N(CC1(S(=O)(=O)N3CCC(C)(O)C3)CC1)CC2 (single isomer, unassigned) [Example 131, (R)- or (S)-N-(4-Cyanobenzyl)-6-((1-((3-hydroxy-3-methylpyrrolidin-1-yl)sulfonyl)cyclopropyl)methyl)-1-methyl-7-oxo-4,5,6,7-tetrahydro-1H-pyrazolo[3,4-c]pyridine-3-carboxamide] as the compound, how does the IC50 [2, 5] read?
Answer: The IC50 was 162 nM.

Question: And the EC50 [3, 6]?
Answer: The EC50 was 223 nM.

Question: For CNCC(O)C(C)(C)S(=O)(=O)C1(CN2CCc3c(C(=O)NCc4ccc(Cl)cc4)nn(C)c3C2=O)CC1 (single isomer, unassigned) [Example 204], which IC50 [1, 4] is on record?
Answer: Its IC50 is 3 nM.

Question: And the IC50 [2, 5]?
Answer: The IC50 was 37 nM.

Question: What does the source list for CN(C)CC(O)C(C)(C)S(=O)(=O)C1(CN2CCc3c(C(=O)NCc4ccc(Cl)cc4)nn(C)c3C2=O)CC1 (single isomer, unassigned) [Example 206]?
Answer: IC50 [1, 4]: 21 nM; IC50 [2, 5]: 74 nM

Question: How did the IC50 [1, 4] turn out when Cn1nc(C(=O)NCc2ccc(Cl)cc2)c2c1C(=O)N(CC1(S(=O)(=O)C3(C(O)CO)CC3)CC1)CC2 (single isomer, unassigned) [Example 197] was run?
Answer: The IC50 was 1 nM.

Question: And the EC50 [3, 6]?
Answer: Its EC50 is 20 nM.

Question: How did the IC50 [1, 4] turn out when CNCC(O)C(C)(C)S(=O)(=O)C1(CN2CCc3c(C(=O)NCc4ccc(C#N)cc4)nn(C)c3C2=O)CC1 (single isomer, unassigned) [Example 202] was run?
Answer: Its IC50 is 2 nM.

Question: What about the IC50 [2, 5] of the same compound?
Answer: The IC50 was 30 nM.

Question: CC1=NOC(C(C)(C)S(=O)(=O)C2(CN3CCc4c(C(=O)NCc5ccc(C#N)cc5)nn(C)c4C3=O)CC2)C1 (single isomer, unassigned) [Example 111, (R)- or (S)—N-(4-Cyanobenzyl)-1-methyl-6-((1-((2-(3-methyl-4,5-dihydroisoxazol-5-yl)propan-2-yl)sulfonyl)cyclopropyl)methyl)-7-oxo-4,5,6,7-tetrahydro-1H-pyrazolo[3,4-c]pyridine-3-carboxamide] was tested. Which EC50 [3, 6] did it give?
Answer: The EC50 was 159 nM.

Question: With Cn1nc(C(=O)NCc2ccc(C#N)cc2)c2c1C(=O)N(CC1(S(=O)(=O)C3(C(O)CO)CC3)CC1)CC2 (single isomer, unassigned) [Example 195, (R)- or (S)—N-(4-Cyanobenzyl)-6-((1-((1-(1,2-dihydroxyethyl)cyclopropyl)sulfonyl)cyclopropyl)methyl)-1-methyl-7-oxo-4,5,6,7-tetrahydro-1H-pyrazolo[3,4-c]pyridine-3-carboxamide] as the compound, how does the IC50 [1, 4] read?
Answer: Its IC50 is 1 nM.

Question: What about the EC50 [3, 6] of the same compound?
Answer: The EC50 was 53 nM.

Question: With Cn1nc(C(=O)NCc2ccc(C#N)cc2)c2c1C(=O)N(CC1(S(=O)(=O)C(C)(C)C(O)C(C)(C)N)CC1)CC2 (single isomer, unassigned) [Example 211, (R)- or (S)-6-((1-((4-Amino-3-hydroxy-2,4-dimethylpentan-2-yl)sulfonyl)cyclopropyl)methyl)-N-(4-cyanobenzyl)-1-methyl-7-oxo-4,5,6,7-tetrahydro-1H-pyrazolo[3,4-c]pyridine-3-carboxamide] as the compound, how does the EC50 [3, 6] read?
Answer: The EC50 was 28 nM.

Question: CC1Cc2c(C(=O)NCc3ccc(C#N)cc3)nn(C)c2C(=O)N1CC1(S(C)(=O)=O)CC1 (single isomer, unassigned) [Example 42, (R)- or (S)—N-(4-cyanobenzyl)-1,5-dimethyl-6-((1-(methylsulfonyl)cyclopropyl)methyl)-7-oxo-4,5,6,7-tetrahydro-1H-pyrazolo[3,4-c]pyridine-3-carboxamide] was tested. Which EC50 [3, 6] did it give?
Answer: The EC50 was 1180 nM.

Question: Cn1nc(C(=O)NCc2ccc(Cl)cc2)c2c1C(=O)N(CC1(S(=O)(=O)C(C)(C)C(O)CN)CC1)CC2 (single isomer, unassigned) [Example 200] was tested. Which IC50 [1, 4] did it give?
Answer: The IC50 was 1 nM.

Question: And the IC50 [2, 5]?
Answer: Its IC50 is 14 nM.

Question: How did the EC50 [3, 6] turn out when CC(O)Cn1nc(C(=O)NCc2ccc(C#N)cc2)c2c1C(=O)N(CC1(S(=O)(=O)C3CC3)CC1)CC2 (single isomer, unassigned) [Example 226, (R)- or (S)—N-(4-Cyanobenzyl)-6-((1-(cyclopropylsulfonyl)cyclopropyl)methyl)-1-(2-hydroxypropyl)-7-oxo-4,5,6,7-tetrahydro-1H-pyrazolo[3,4-c]pyridine-3-carboxamide] was run?
Answer: The EC50 was 44 nM.

Question: With CC(N)COCC(C)(C)S(=O)(=O)C1(CN2CCc3c(C(=O)NCc4ccc(C#N)cc4)nn(C)c3C2=O)CC1 (single isomer, unassigned) [Example 99] as the compound, how does the IC50 [1] read?
Answer: Its IC50 is 4 nM.

Question: What about the IC50 [2, 8] of the same compound?
Answer: The IC50 was 63 nM.
